{"source": "a melting point compilation (Tetko et al.; mined from patent text by program, amines drawn as free bases though some values may be those of a salt)", "data": [{"units": {"melting point": "°C"}, "values": [{"smiles": "Nc1cccc(-c2ccc3nnn(Cc4ccc5ncccc5c4)c3n2)c1", "melting point": "187 to 189"}, {"smiles": "C#CCC(=C1NCCCS1)[N+](=O)[O-]", "melting point": "132 to 135"}, {"smiles": "Cc1ccc(OCC(=O)c2ccccc2)cc1", "melting point": 65}, {"smiles": "CC(=O)Nc1cnc(-c2cc(Cl)cc(Cl)c2Cl)c(NC(=O)C(C)C)n1", "melting point": "230 to 232"}, {"smiles": "CCOC(=O)CC(NC(=O)c1ccccc1)C(=O)c1cccs1", "note": "(centres undefined)", "melting point": 75}, {"smiles": "Cc1nc2c(N)nc3ccccc3c2n1CC(C)(C)OCCS(C)(=O)=O", "melting point": "253 to 255"}, {"smiles": "Cc1c(NC(=O)Nc2ccc(-n3nc(C(F)(F)F)cc3C(F)(F)F)cc2)cccc1[N+](=O)[O-]", "melting point": "235 to 236"}, {"smiles": "CC(C)CC(C(=O)O)c1cc(Cl)c(-c2ccc(Cl)cc2)c(OCC2CC2)c1", "note": "(centres undefined)", "melting point": "52 to 53"}, {"smiles": "O=C(NCc1noc(-c2c3ccccc3nn2CCn2ccnc2)n1)c1ccccc1", "melting point": "167 to 168"}, {"smiles": "COc1ccc(S(=O)(=O)N2CCc3cccc(-c4cccnc4)c32)cc1", "melting point": "179 to 181"}, {"smiles": "O=CNc1cccc2ccc(O)cc12", "melting point": "203 to 205"}, {"smiles": "CS(=O)(=O)Oc1ccc(-c2sc3cc(OS(C)(=O)=O)ccc3c2C(=O)c2ccc(OCCBr)cc2)cc1", "melting point": "105 to 107"}, {"smiles": "CCOC(=O)C(F)(F)C(=O)[C@H](Cc1ccccc1)NC(=O)Cn1c(-c2cccc(C)c2)ncc(NC(=O)OCc2ccccc2)c1=O", "melting point": "138 to 140"}, {"smiles": "COc1ccc(N(CCCC(=O)O)C(=O)CCN(C(=O)c2ccc(Cl)cc2)c2c(C)cccc2C)cc1", "melting point": "138 to 140"}, {"smiles": "Cc1cc(C(N)=O)ncc1C(c1c(F)ccc(F)c1F)S(=O)(=O)c1ccc(F)c(F)c1", "note": "(centres undefined)", "melting point": "200 to 201"}, {"smiles": "CN1CCN(C2=Nc3ccccc3Sc3nccn32)CC1", "melting point": "145 to 147"}, {"smiles": "Cc1cc(N)nc(CCC(=O)Nc2cc(I)cnc2N)c1", "melting point": 172}, {"smiles": "C[C@H]1C[C@@](O)(c2cccc(S(=O)(=O)c3ccc4c(c3F)CCC(=O)N4C)c2)CCO1", "melting point": "149 to 151"}, {"smiles": "O=[N+]([O-])c1cccnc1NCc1ccc(F)cc1", "melting point": 76}, {"smiles": "Cc1ccc(N(C)S(=O)(=O)c2cccs2)c2[nH]c(C(N)=O)cc12", "melting point": "221 to 222"}, {"smiles": "CN1CCN(C(=O)Nc2cccc3nc(NC4CCc5ccccc54)ccc23)CC1", "note": "(centres undefined)", "melting point": 142}, {"smiles": "Cc1c(F)c(F)cc2c1c(=O)c(C(=O)O)cn2-c1cc(N)c(F)cc1F", "melting point": "> 270"}, {"smiles": "Cc1c(-c2ccc(F)cc2)[nH]c(N2CCOCC2)c1C#N", "melting point": "245 to 247"}, {"smiles": "COc1cc2c3c(n(C(=O)c4ccccc4)c2cc1OC)CCC(C(=O)O)C3", "note": "(centres undefined)", "melting point": "191 to 194"}, {"smiles": "CC(=O)N1N=C(c2ccc(N)cc2)c2cc(Cl)c(Cl)cc2CC1C", "note": "(centres undefined)", "melting point": "242 to 243"}, {"smiles": "O=C(c1ccc(-c2ccccn2)s1)N1CCCCc2sccc21", "melting point": "150 to 154"}, {"smiles": "O=C(NC1CCCCC1)N1C(=O)C2(CCCCC2)NC12CCCCC2", "melting point": "106 to 109"}, {"smiles": "CCCCc1oc2ccccc2c1C(O)c1ccc(-c2ccc(OCC(=O)O)cc2)cc1", "note": "(centres undefined)", "melting point": "111 to 113"}, {"smiles": "CC1(C)CC(NCC(O)COc2ccc(C(=O)c3ccccc3)c(O)c2)CC(C)(C)N1OC1CCCCC1", "note": "(centres undefined)", "melting point": "118 to 121"}, {"smiles": "Cc1ccc([N+](=O)[O-])c2c1C(N1C(=O)c3ccccc3C1=O)CCC2=O", "note": "(centres undefined)", "melting point": "220 to 230"}, {"smiles": "O=C1C2=CSCCN2C(=O)N1c1ccc(Cl)cc1", "melting point": "155 to 158"}, {"smiles": "C[Si](C)(C)OCCCc1c[nH]c2ccccc12", "melting point": "34 to 38"}, {"smiles": "CCCc1ccc(NC(=O)c2ccccc2C(c2ccc(O)cc2)c2ccc(O)cc2)cc1", "melting point": "218 to 219"}, {"smiles": "COC(=O)c1cc2ccc(OC)cc2n1CCN1CCC(NCc2cc3c(cn2)OCCO3)CC1", "melting point": 130}, {"smiles": "COC(=O)C(CCc1ccc(C#N)cc1)C(N)=O", "note": "(centres undefined)", "melting point": 125}, {"smiles": "CC1CC2C3CC(F)C4=CC(=O)C=CC4(C)C3C(O)CC2(C)C1C(=O)COC(=O)CCC(=O)O", "note": "(centres undefined)", "melting point": "212 to 214"}, {"smiles": "CCCC1=C(C(=O)OCC)C(c2c(OC)ccc3ccccc23)c2c[nH]nc2N1", "note": "(centres undefined)", "melting point": "188 to 191"}, {"smiles": "CCCN(CCC)C(=O)Cn1c(-c2ccc(OC)cc2)nc2cccnc21", "melting point": "127 to 129"}, {"smiles": "CCC(OC)(c1cccc(OCc2cc3ccccc3n(C)c2=O)c1)c1nccs1", "note": "(centres undefined)", "melting point": "123 to 125"}, {"smiles": "O=C1c2ccccc2C(=O)c2c1c(O)c1ccccc1c2O", "melting point": "214 to 216"}, {"smiles": "CC(C)C(NC(=O)N(C)Cc1ccccn1)C(=O)NC(Cc1ccccc1)C(O)C(O)C(Cc1ccccc1)NC(=O)C(NC(=O)N(C)Cc1ccccn1)C(C)C", "note": "(centres undefined)", "melting point": "159 to 162"}, {"smiles": "N#CN1CCC(C2c3ccccc3NN2c2ccccc2Cl)CC1", "note": "(centres undefined)", "melting point": "109 to 111"}, {"smiles": "Cc1cccc(N=C2NCCN2)c1", "melting point": 115}, {"smiles": "COC(=O)c1nc(-c2ccc(Cl)cc2)cc(N(C)C)c1N", "melting point": "153 to 154"}, {"smiles": "CCOC(=O)C1=C(COCc2nnc(CN(C)C)s2)NC(C)=C(C(=O)OC)C1c1cccc(Cl)c1Cl", "note": "(centres undefined)", "melting point": "168 to 170"}, {"smiles": "CC1(C)Oc2ccc(S(C)(=O)=O)cc2[C@@H](N2CCCS2(=O)=O)[C@@H]1O", "note": "(relative stereo)", "melting point": "220 to 221"}, {"smiles": "COc1cc(C)nc(N(C)C(=O)NS(=O)(=O)c2cc(Cl)ccc2Cl)n1", "melting point": "182 to 185"}, {"smiles": "CCOC(=O)CNC(=O)c1cc2c(s1)-n1c(C)nnc1CN=C2c1ccccc1Cl", "melting point": "251 to 252"}, {"smiles": "C=CCOC(=O)c1c(C)c(OC)cc(O)c1C=O", "melting point": "73 to 74"}, {"smiles": "Cc1nc(N2CCN(Cc3ccc(OC(F)(F)F)cc3)C2=O)sc1C(=O)NCCc1ccccc1", "melting point": "184 to 185"}, {"smiles": "Cc1cc(Cl)c(N=C2NCCN2)cc1[N+](=O)[O-]", "melting point": "198 to 201"}, {"smiles": "COc1cc2sc(C=O)cc2c(Cl)c1OC", "melting point": "164 to 165"}, {"smiles": "CCN(CCOC)C(=O)c1cc(-c2ccccc2)c(=O)n2c1-c1cc(Cl)ccc1CN2", "melting point": "184 to 185"}, {"smiles": "S=C(NCCC1=CCCCC1)Nc1ccccn1", "melting point": "153 to 155"}, {"smiles": "COc1ccc(-c2cc(=Nc3ccc(OCC4CO4)cc3)n(C)c(=O)n2C)cc1OC", "note": "(centres undefined)", "melting point": "155 to 157"}, {"smiles": "O=C(O)c1ccc(Cn2ncc3ccccc32)cc1", "melting point": "178 to 179"}, {"smiles": "Cc1nc(NC(CO)C(C)C)c2c(n1)c(C)nn2C", "note": "(centres undefined)", "melting point": "166 to 168"}, {"smiles": "CCS(=O)(=O)N[C@H](C(=O)NCCc1ccc(OCc2ccccc2)c(OC)c1)C(C)C", "melting point": "140 to 142"}, {"smiles": "COc1ccc2c(c1)C=C(CN1CCC3(CC1)C(=O)NCN3c1ccccc1)CC2", "melting point": "184 to 186"}, {"smiles": "CC(=O)c1cc(CN2CCN(CCO)CC2)ccc1O", "melting point": "72 to 75"}, {"smiles": "O=C(CCCCCNC(=O)c1ccc2ccccc2c1)NO", "melting point": "96 to 98"}, {"smiles": "CC(C)n1nc(-c2cc(C(=O)O)cnc2-c2ccccc2)ccc1=O", "melting point": "221 to 223"}, {"smiles": "CC1(C(F)(F)F)OC(=O)Nc2ccc(Cl)cc21", "note": "(centres undefined)", "melting point": 216}, {"smiles": "O=C(O)[C@@H]1C[C@H](OS(=O)(=O)C2CCCCC2)CN1C(=O)c1ccccc1", "melting point": "154 to 172"}, {"smiles": "Nc1cc(OC2CCNCC2)c(F)c2c1c(=O)c(C(=O)O)cn2C1CC1", "melting point": "> 300"}, {"smiles": "CCOc1cc(CO)cc(OCc2nc(-c3ccccc3)oc2C)c1", "melting point": "103 to 104"}, {"smiles": "Cc1cnc2c(c1)CCCC2Cl", "note": "(centres undefined)", "melting point": 177}, {"smiles": "N[C@@]1(C(=O)O)C[C@H](NC(=O)Nc2ccc(Cl)cc2)[C@H]2[C@H](C(=O)O)[C@H]21", "note": "(relative stereo)", "melting point": "> 250"}, {"smiles": "Cc1ccc(C(=O)N[C@@H](COC(C)(C)C)NC(=S)Nc2cccc([N+](=O)[O-])c2)cc1", "melting point": "169 to 171"}]}]}
